This is an account of results in ChEMBL document CHEMBL3785078 (Eur J Clin Pharmacol, 1981).

Data set [1] in a line: Half life in patient (5 patients) with severe renal insufficiency assessed as unchanged compound level using 14C labeled compound measured over 72 hrs. Particulars: human, in vivo.
A short description of data set [2]: Apparent volume of distribution in beta-phase in iv dosed patient (7 patients) with renal insufficiency. Particulars: human, in vivo.
Data set [3] in a line: Apparent volume of distribution at steady state in iv dosed patient with normal renal function. As to conditions: human, in vivo.
Data set [4] in a line: Disposition rate constant in patient (7 patients) with renal insufficiency at 50 mg/kg, po. Particulars: human, in vivo.
The nature of data set [5]: Disposition rate constant in iv dosed patient (7 patients) with renal insufficiency. Particulars: human, in vivo.
Data set [6] in a line: clinical. As to conditions: human, in vivo, po, 50 mg/kg.
Description: Terminal half life in patient (7 patients) with renal insufficiency at 50 mg/kg, po
Data set [7] is described as follows: Apparent first order elimination rate constant from the central compartment in iv dosed patient (7 patients) with renal insufficiency. Particulars: human, in vivo.
Data set [8] in a line: Drug excretion in human assessed as unchanged parent compound level. As to conditions: in vivo.
The nature of data set [9]: Apparent volume of distribution at central compartment in iv dosed patient (7 patients) with renal insufficiency. As to conditions: human, in vivo.
Data set [10] in a line: Total body clearance in iv dosed patient with normal renal function. Particulars: human, in vivo.
Data set [11] in a line: Total body clearance in iv dosed patient (7 patients) with renal insufficiency. As to conditions: human, in vivo.
The nature of data set [12]: Half life in patient with normal renal function assessed as unchanged compound level using 14C labeled compound measured over 72 hrs. As to conditions: human, in vivo.
The nature of data set [13]: Apparent first order elimination rate constant from the central compartment in iv dosed patient with normal renal function. As to conditions: human, in vivo.
Data set [14] is described as follows: Disposition rate constant in patient (7 patients) with renal insufficiency at 350 mg/kg, po. Particulars: human, in vivo.
A short description of data set [15]: Apparent volume of distribution in beta-phase iv dosed patient with normal renal function. As to conditions: human, in vivo.
Data set [16] is described as follows: Terminal half life in iv dosed patient (7 patients) with renal insufficiency. Particulars: human, in vivo.
Data set [17] can be described thus: Terminal half life in iv dosed patient with normal renal function. As to conditions: human, in vivo.
Data set [18] is described as follows: clinical. As to conditions: human, in vivo, po, 350 mg/kg.
Description: Terminal half life in patient (7 patients) with renal insufficiency at 350 mg/kg, po
A short description of data set [19]: Apparent volume of distribution at steady state in iv dosed patient (7 patients) with renal insufficiency. As to conditions: human, in vivo.

As to `O=P1(N(CCCl)CCCl)NCCCO1` (centres undefined) [CYCLOPHOSPHAMIDE ANHYDROUS], the half-life – broadly, how long it takes for the measured level to halve – at 72 h was 14 h in data set [1] and 6.9 h in data set [12]. The Vd in [2] was determined as 0.72 L/kg; in data set [3], 0.73 L/kg; in [9], 0.41 L/kg; in [15], 0.68 L/kg; in [19], 0.58 L/kg. The k el is 1.42e-05 s⁻¹ in data set [4]; 1.94e-05 s⁻¹ in data set [5]; 3.36e-05 s⁻¹ in [7]; 4.86e-05 s⁻¹ in [13]; 1.92e-05 s⁻¹ in data set [14]. Also, the half-life in “clinical [6]” is 13.7 h; in data set [16], 10.2 h; in data set [17], 8.21 h; in “clinical [18]”, 5.21 h. Moreover, the dose excreted in data set [8] is below 15%. Also, the results for the clearance in data set [10] and in data set [11] were 0.977 mL/min/kg and 0.813 mL/min/kg, respectively.
